US20230276817A1, “PREPARATION AND METHOD FOR IMPROVING RiNG ROT RESISTANCE OF APPLE FRUITS” (Shandong Institute of Pomology, priority 2022, published 2023)

Assays:
Type in all cases: in vivo
Botryosphaeria dothidea [1] = assay: In-vitro inoculation of sorbitol-soaked mature "Red delicious" apple fruits with ring rot fungus
Experimental: (§1) A fungus block of Botrvosphaeria dothidea was inoculated in a potato dextrose agar (PDA) medium by a puncher having a diameter of 5 mm, and inverted and cultured in the dark at 28° C. for 10 days.
S21: An in-vitro inoculation method was adopted for identifying disease resistance of the “Red delicious” apple fruits; and 6 treatments were set as follows:
S22: Surfaces of mature “Red delicious” fruits (within 140 days after flowering) were disinfected with 0.1% of sodium hypochlorite; and the fruits were fully washed with sterilized deionized water, aired and stood at 25° C. for 12 h for later use.
S23: The “Red delicious” fruits of the same size were selected and respectively soaked in the sterilized deionized water, the sorbitol solution of 100 mM, the sorbitol solution of 150 mM, the sorbitol solution of 200 mM and the sorbitol solution of 300 mM; and 10 fruits were treated in each treatment. The apples were taken out within 3 h after treatment; surface liquid was wiped up; middle parts of the surfaces of the apple fruits were punctured by sterilized toothpicks at a depth of 5 mm: 0.02 g of Botryosphaeria. dothidea hyphae having vigorous and consistent growth within 10 days was added into the punctured parts; and the single pathogenic fungus inoculation treatment was taken as control. After inoculation, the “Red delicious” fruits were cultured in a thermostatic incubator at 28° C. in the dark. A disease spot diameter served as a measurement standard of the incidence degree of the apple fruits; diameters of 5 points of each disease spot were measured; and the mean value was taken as the result. Since 3 d after treatment, disease spot diameters of the apple fruits in different treatments were photographed and recorded every day; and the diameters were continuously recorded for 4 d. A significance level of disease spot size differences among the treatment groups was calculated according to analysis of variance.

Botryosphaeria dothidea [2] = assay: In-vitro inoculation of sorbitol-soaked mature "Golden delicious" apple fruits with ring rot fungus
Experimental: as §1
S51: An in-vitro inoculation method was adopted for identifying disease resistance of the “Golden delicious” apple fruits; and 6 treatments were set as follows:
S52: Surfaces of mature “Golden delicious” fruits (within 135 days after flowering) were disinfected with 0.1% of sodium hypochlorite; and the fruits were fully washed with sterilized deionized water, aired and stood at 25° C. for 12 h for later use.
S53: The “Golden delicious” fruits of the same size were selected and respectively soaked in the sterilized deionized water, the sorbitol solution of 100 mM, the sorbitol solution of 150 mM, the sorbitol solution of 200 mM and the sorbitol solution of 300 mM; and 10 fruits were treated in each treatment. The apples were taken out within 3 h after treatment; surface liquid was wiped up; middle parts of the surfaces of the apple fruits were punctured by sterilized toothpicks at a depth of 5 mm; 0.02 g of Botryosphaeria dothidea hyphae having vigorous and consistent growth within 10 days was added into the punctured parts; and the single pathogenic fungus inoculation treatment was taken as control. After inoculation, the “Golden delicious” fruits were cultured in a thermostatic incubator at 28° C. in the dark. A disease spot diameter served as a measurement standard of the incidence degree of the apple fruits; diameters of 5 points of each disease spot were measured; and the mean value was taken as the result. Since 3 d after treatment, disease spot diameters of the apple fruits in different treatments were photographed and recorded every day; and the diameters were continuously recorded for 4 d. A significance level of disease spot size differences among the treatment groups was calculated according to analysis of variance.

Botryosphaeria dothidea [3] = assay: In-vitro inoculation of sorbitol-soaked mature "Gala" apple fruits with ring rot fungus
Experimental: as §1
S41: An in-vitro inoculation method was adopted for identifying disease resistance of the “Gala” apple fruits, and 6 treatments were set as follows:
S42: Surfaces of mature “Gala” fruits (within 120 days after flowering) were disinfected with 0.1% of sodium hypochlorite; and the fruits were fully washed with sterilized deionized water, aired and stood at 25° C. for 12 h for later use.
S43: The “Gala” fruits of the same size were selected and respectively soaked in the sterilized deionized water, the sorbitol solution of 100 mM, the sorbitol solution of 150 mM, the sorbitol solution of 200 mM and the sorbitol solution of 300 mM; and 10 fruits were treated in each treatment. The apples were taken out within 3 h after treatment; surface liquid was wiped up; middle parts of the surfaces of the apple fruits were punctured by sterilized toothpicks at a depth of 5 mm; 0.02 g of Botryosphaeria dothidea hyphae having vigorous and consistent growth within 10 days was added into the punctured parts; and the single pathogenic fungus inoculation treatment was taken as control. After inoculation, the “Gala” fruits were cultured in a thermostatic incubator at 28° C. in the dark. A disease spot diameter served as a measurement standard of the incidence degree of the apple fruits; diameters of 5 points of each disease spot were measured; and the mean value was taken as the result. Since 3 d after treatment, disease spot diameters of the apple fruits in different treatments were photographed and recorded every day; and the diameters were continuously recorded for 4 d. A significance level of disease spot size differences among the treatment groups was calculated according to analysis of variance.

Botryosphaeria dothidea [4] = assay: In-vitro inoculation of sorbitol-soaked mature "Fuji" apple fruits with ring rot fungus
Experimental: as §1
S31: An in-vitro inoculation method was adopted for identifying disease resistance of the “Fuji” apple fruits; and 6 treatments were set as follows:
S32: Surfaces of mature “Fuji” fruits (within 180 days after flowering) were disinfected with 0.1% of sodium hypochlorite; and the fruits were fully washed with sterilized deionized water, aired and stood at 25° C. for 12 h for later use.
S33: The “Fuji” fruits of the same size were selected and respectively soaked in the sterilized deionized water, the sorbitol solution of 100 mM, the sorbitol solution of 150 mM, the sorbitol solution of 200 mM and the sorbitol solution of 300 mM; and 10 fruits were treated in each treatment. The apples were taken out within 3 h after treatment; surface liquid was wiped up; middle parts of the surfaces of the apple fruits were punctured by sterilized toothpicks at a depth of 5 mm; 0.02 g of Botryosphaeria dothidea hyphae having vigorous and consistent growth within 10 days was added into the punctured parts; and the single pathogenic fungus inoculation treatment was taken as control. After inoculation, the “Fuji” fruits were cultured in a thermostatic incubator at 28° C. in the dark. A disease spot diameter served as a measurement standard of the incidence degree of the apple fruits; diameters of 5 points of each disease spot were measured; and the mean value was taken as the result. Since 3 d after treatment, disease spot diameters of the apple fruits in different treatments were photographed and recorded every day; and the diameters were continuously recorded for 4 d. A significance level of disease spot size differences among the treatment groups was calculated according to analysis of variance.

[5] = sorbitol solution of 200 mM, soak 3 h, 6 d after inoculation
[6] = sorbitol solution of 300 mM, 6 d after inoculation
[7] = sorbitol solution soak 3 h, 3-6 d after inoculation

Q: Which results are given for `OC[C@@H](O)[C@@H](O)[C@H](O)[C@@H](O)CO` [sorbitol, D-Sorbitol]?
A: optimum treatment concentration (Botryosphaeria dothidea [1]): 200 mM; disease spot diameter (Botryosphaeria dothidea [1]; [5]): 0.76 cm; disease spot diameter versus 200 mM treatment (Botryosphaeria dothidea [1]; [6]): no significant difference; increase rate of the disease spot diameters compared with the control (Botryosphaeria dothidea [1]; [7]): significantly decreased; optimum treatment concentration (Botryosphaeria dothidea [2]): 200 mM; average disease spot diameter (Botryosphaeria dothidea [2]; [5]): 1.70 cm; disease spot diameter versus 200 mM treatment (Botryosphaeria dothidea [2]; [6]): no significant difference; increase rate of the disease spot diameters compared with the control (Botryosphaeria dothidea [2]; [7]): significantly decreased; optimum treatment concentration (Botryosphaeria dothidea [3]): 200 mM; average disease spot diameter (Botryosphaeria dothidea [3]; [5]): 1.89 cm; disease spot diameter versus 200 mM treatment (Botryosphaeria dothidea [3]; [6]): no significant difference; increase rate of the disease spot diameters compared with the control (Botryosphaeria dothidea [3]; [7]): significantly decreased; optimum treatment concentration (Botryosphaeria dothidea [4]): 150 mM; disease spot diameter (Botryosphaeria dothidea [4]; sorbitol solution of 150 mM, soak 3 h, 6 d after inoculation): 1.86 cm; disease spot diameter versus 150 mM treatment (Botryosphaeria dothidea [4]; sorbitol solution of 200 mM, 6 d after inoculation): no significant difference; disease spot diameter versus 150 mM treatment (Botryosphaeria dothidea [4]; [6]): no significant difference; increase rate of the disease spot diameters compared with the control (Botryosphaeria dothidea [4]; [7]): significantly decreased
